Measured values from patent US8354414B2, “Substituted bicyclic pyrimidines” (Cephalon, Inc, priority 2006, dated 2013).

Columns and labels:
CDK5/GST-p25 = molecular target: T1, CDK5/GST-p25 (Homo sapiens, UniProt Q00535); assay: Inhibition of CDK5/GST-p25 kinase activity (ELISA with time-resolved fluorescence readout); assay type: biochemical; conditions: class symbols
T1 construct: The final construct, encoding for full-length human CDK5; made in house; host or cells: Sf21 insect cells (baculovirus co-infection)
Method in brief: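 The substrate, GST-Rb(773-928), was immobilised on plates and phosphorylated for 20 min at 37 °C by 2 ng/ml CDK5/GST-p25 in HEPES pH 7.2 with 10 µM ATP and 10 mM MgCl2. Both proteins were human and co-expressed in insect cells. Ser-780 phosphorylation was read by europium time-resolved fluorescence and converted to IC50.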

His6-GSK-3β = molecular target: T2, His6-GSK-3β (Homo sapiens, UniProt P49841); assay: Inhibition of His6-GSK-3β kinase activity (ELISA-based format, time-resolved fluorescence readout); assay type: biochemical; conditions: class symbols; read-out: GSK3β IC50
T2 construct: made in house; host or cells: Sf21 insect cells (baculovirus)
Method in brief: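 Plate-bound recombinant GST-Rb substrate was phosphorylated for 30 min at 37° C by baculovirus-expressed His6-GSK-3β (200 ng/ml) at 20 μM ATP, 10 mM MgCl2, 2.5% DMSO. Europium time-resolved fluorescence of anti-phospho-Ser780 Rb signal gave inhibition, fitted to IC50.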

T2 sequence (P49841 2-419): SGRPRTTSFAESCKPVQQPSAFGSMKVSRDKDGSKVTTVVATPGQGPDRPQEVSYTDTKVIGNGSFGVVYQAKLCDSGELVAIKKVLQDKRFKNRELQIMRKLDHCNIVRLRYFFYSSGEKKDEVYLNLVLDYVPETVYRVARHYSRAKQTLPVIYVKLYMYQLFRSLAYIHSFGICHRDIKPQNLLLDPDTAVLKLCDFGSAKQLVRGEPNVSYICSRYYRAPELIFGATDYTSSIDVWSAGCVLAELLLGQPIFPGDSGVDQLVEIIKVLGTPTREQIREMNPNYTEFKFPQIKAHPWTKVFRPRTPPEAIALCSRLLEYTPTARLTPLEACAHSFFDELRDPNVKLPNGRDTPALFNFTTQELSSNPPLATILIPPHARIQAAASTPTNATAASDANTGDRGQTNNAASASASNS
T1 sequence (Q00535 whole entry): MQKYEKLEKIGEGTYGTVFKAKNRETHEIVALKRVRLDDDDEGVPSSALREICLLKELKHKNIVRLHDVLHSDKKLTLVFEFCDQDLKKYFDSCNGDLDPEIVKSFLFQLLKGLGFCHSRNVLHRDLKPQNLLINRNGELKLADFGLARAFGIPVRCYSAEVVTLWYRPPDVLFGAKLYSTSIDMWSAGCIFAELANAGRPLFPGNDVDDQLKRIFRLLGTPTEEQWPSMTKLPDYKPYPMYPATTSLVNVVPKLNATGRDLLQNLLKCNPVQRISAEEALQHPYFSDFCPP
T1 sequence (Q15078 108-307 partner limits assumed): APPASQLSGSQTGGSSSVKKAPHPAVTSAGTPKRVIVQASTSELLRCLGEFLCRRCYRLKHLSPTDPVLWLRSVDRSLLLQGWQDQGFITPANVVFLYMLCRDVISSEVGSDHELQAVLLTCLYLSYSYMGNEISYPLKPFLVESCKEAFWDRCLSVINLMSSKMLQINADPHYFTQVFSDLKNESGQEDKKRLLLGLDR

Structure (SMILES): CC(=O)NCCNc1nc(C2C(=O)Nc3ccc(Cl)cc32)c2cn(C3CCCC3)nc2n1 (stereo not drawn) [Example 276, N-{2-[4(5-Chloro-2-oxo-2,3-dihydro-1H-indol-3-yl)-2-cyclopentyl-2H-pyrazolo[3,4-d]pyrimidin-6-ylamino]-ethyl}-acetamide]
- IC50 (CDK5/GST-p25): 300 to 3000 nM
- IC50 (His6-GSK-3β): < 300 nM
- melting point: 209 to 226 °C

Structure (SMILES): CC(C)Cn1cc2c(C3C(=O)Nc4ccc(Br)cc43)nc(NCCCN(C)C)nc2n1 (stereo not drawn) [Example 269, 5-Bromo-3-[6-(3-dimethylamino-propylamino)-2-isobutyl-2H-pyrazolo [3,4-d]pyrimidin-4-yl]-1,3-dihydro-indol-2-one]
- IC50 (CDK5/GST-p25): < 300 nM
- IC50 (His6-GSK-3β): < 300 nM
- melting point: 250.5 to 254 °C

Structure (SMILES): O=C1Nc2cc(Cl)ccc2C1c1ncnc2c1cnn2C1CCCC1 (stereo not drawn) [Example 59, 6-Chloro-3-(1-cyclopentyl-1H-pyrazolo[3,4-d]pyrimidin-4-yl)-1,3-dihydro-indol-2-one]
- IC50 (CDK5/GST-p25): > 10000 nM
- IC50 (His6-GSK-3β): 300 to 3000 nM
- melting point: 288 to 291 °C

Structure (SMILES): O=C1Nc2cc(F)ccc2C1c1ncnc2nn(C3CCCC3)cc12 (stereo not drawn) [Example 41, 3-(2-Cyclopentyl-2H-pyrazolo[3,4-d]pyrimidin-4-yl)-6-fluoro-1,3-dihydro-indol-2-one]
- IC50 (CDK5/GST-p25): 300 to 3000 nM
- IC50 (His6-GSK-3β): 300 to 3000 nM
- melting point: 258 to 263 °C

Structure (SMILES): C=CCNc1nc(C2C(=O)Nc3ccc(C(F)(F)F)cc32)c2cn(C3CCCC3)nc2n1 (stereo not drawn) [Example 248, 3-(6-Allylamino-2-cyclopentyl-2H-pyrazolo[3,4-d]pyrimidin-4-yl)-5-trifluoromethyl-1,3-dihydro-indol-2-one]
- IC50 (CDK5/GST-p25): > 10000 nM
- IC50 (His6-GSK-3β): < 300 nM
- melting point: > 300 °C

Structure (SMILES): CCOCCn1cc2c(C3C(=O)Nc4ccc(Br)cc43)nc(NCCN(C)C)nc2n1 (stereo not drawn) [Example 237, 5-Bromo-3-[6-(2-dimethylamino-ethylamino)-2-(2-ethoxy-ethyl)2H-pyrazolo[3,4-d]pyrimidin-4-yl]-1,3-dihydro-indol-2-one]
- IC50 (CDK5/GST-p25): < 300 nM
- IC50 (His6-GSK-3β): < 300 nM
- melting point: 247 to 251 °C

Structure (SMILES): CCCn1cc2c(C3C(=O)Nc4ccc(F)cc43)ncnc2n1 (stereo not drawn) [Example 100]
- IC50 (CDK5/GST-p25): < 300 nM
- IC50 (His6-GSK-3β): 300 to 3000 nM
- melting point: 288 to 292 °C
